“And” between values parts separate entries of the source, which are not always exact repeats. Equal entries are not always repeated. Inconclusive results and toxic doses are left out.
System: L1210 leukemia ip in BDF1 mice, survival T/C
Test: NCI In Vivo Anticancer Drug Screen. Data for tumor model L1210 Leukemia (intraperitoneal) in B6D2F1 (BDF1) mice
Details: endpoint: mean survival time, higher = longer survival
In short: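 Transplanted-tumor mice were given test agent; controls received vehicle only. Survival readings from the two groups were divided (treated over control).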

[1] = dose: 100.0 mg/kg/injection, schedule: Q01DX009 (ip), vehicle: Klucel (hydroxypropylcellulose) (HPC)
[2] = dose: 200.0 mg/kg/injection, schedule: Q01DX009 (ip), vehicle: Klucel (hydroxypropylcellulose) (HPC)
[3] = dose: 400.0 mg/kg/injection, schedule: Q01DX009 (ip), vehicle: Klucel (hydroxypropylcellulose) (HPC)
[4] = dose: 25.0 mg/kg/injection, schedule: Q01DX009 (ip), vehicle: Klucel (hydroxypropylcellulose) (HPC)
[5] = dose: 100.0 mg/kg/injection, schedule: Q01DX009 (ip), vehicle: saline with Tween-80
[6] = dose: 200.0 mg/kg/injection, schedule: Q01DX009 (ip), vehicle: saline with Tween-80
[7] = dose: 400.0 mg/kg/injection, schedule: Q01DX009 (ip), vehicle: saline with Tween-80
[8] = dose: 50.0 mg/kg/injection, schedule: Q01DX001 (ip), vehicle: carboxymethylcellulose (CMC)
[9] = dose: 100.0 mg/kg/injection, schedule: Q01DX001 (ip), vehicle: carboxymethylcellulose (CMC)
[10] = dose: 200.0 mg/kg/injection, schedule: Q01DX001 (ip), vehicle: carboxymethylcellulose (CMC)
[11] = dose: 400.0 mg/kg/injection, schedule: Q01DX001 (ip), vehicle: carboxymethylcellulose (CMC)
[12] = dose: 100.0 mg/kg/injection, schedule: Q04DX003 (ip), vehicle: saline with Tween-80
[13] = dose: 200.0 mg/kg/injection, schedule: Q04DX003 (ip), vehicle: saline with Tween-80
[14] = dose: 400.0 mg/kg/injection, schedule: Q04DX003 (ip), vehicle: saline with Tween-80
[15] = dose: 50.0 mg/kg/injection, schedule: Q01DX009 (ip), vehicle: Klucel (hydroxypropylcellulose) (HPC)
[16] = dose: 100.0 mg/kg/injection, schedule: Q01DX001 (ip), vehicle: saline
[17] = dose: 200.0 mg/kg/injection, schedule: Q01DX001 (ip), vehicle: saline
[18] = dose: 400.0 mg/kg/injection, schedule: Q01DX001 (ip), vehicle: saline
[19] = dose: 100.0 mg/kg/injection, schedule: Q04DX003 (ip), vehicle: saline

`Nc1nc(N)c2nc(CNc3ccc(C(=O)NC(CCC(=O)O)C(=O)O)nc3)cnc2n1` (centres undefined) was tested, and the T/C (dose: 0.44 mg/kg/injection, schedule: Q01DX009 (ip), vehicle: Klucel (hydroxypropylcellulose) (HPC)) was 169 % of control, the T/C (dose: 0.66 mg/kg/injection, schedule: Q01DX009 (ip), vehicle: Klucel (hydroxypropylcellulose) (HPC)) was 168 % of control and the T/C (dose: 75.0 micrograms/kg/injection, schedule: Q01DX009 (ip), vehicle: Klucel (hydroxypropylcellulose) (HPC)) was 119 % of control. The T/C (dose: 100.0 micrograms/kg/injection, schedule: Q01DX009 (ip), vehicle: Klucel (hydroxypropylcellulose) (HPC)) was 150 % of control, the T/C (dose: 150.0 micrograms/kg/injection, schedule: Q01DX009 (ip), vehicle: Klucel (hydroxypropylcellulose) (HPC)) was 156 % of control and 160 % of control and the T/C (dose: 220.0 micrograms/kg/injection, schedule: Q01DX009 (ip), vehicle: Klucel (hydroxypropylcellulose) (HPC)) was 161 % of control. For the same compound, the T/C (dose: 600.0 micrograms/kg/injection, schedule: Q01DX009 (ip), vehicle: Klucel (hydroxypropylcellulose) (HPC)) was 102 % of control.

For `CCOC(=O)c1ccc(NC(=O)Oc2cc(C)ccc2C)cc1`, the T/C [1] was 93 % of control, the T/C [2] was 92 % of control and the T/C [3] was 90 % of control.

For `C[N+](C)(C)c1ccc(/C(C#N)=N/O)cc1`, the T/C (dose: 12.5 mg/kg/injection, schedule: Q01DX009 (ip), vehicle: Klucel (hydroxypropylcellulose) (HPC)) was 101 % of control and the T/C [4] was 100 % of control.

`COc1ccc(C2CCc3cc4c(cc3C2=O)OCO4)cc1OC` (centres undefined) was tested, and the T/C [5] was 98 % of control, the T/C [6] was 98 % of control and the T/C [7] was 98 % of control.

`CCCS/C(N)=N/N=C/c1ccc([N+](=O)[O-])o1` was tested, and the T/C (dose: 50.0 mg/kg/injection, schedule: Q01DX001 (ip), vehicle: other) was 96 % of control and the T/C (dose: 100.0 mg/kg/injection, schedule: Q01DX001 (ip), vehicle: other) was 94 % of control.

In the case of `C/C(=N/O)c1ccccc1NO`, the T/C (dose: 25.0 mg/kg/injection, schedule: Q01DX001 (ip), vehicle: carboxymethylcellulose (CMC)) is reported as 89 % of control, the T/C [8] is reported as 94 % of control and the T/C [9] is reported as 96 % of control. The T/C [10] was 91 % of control and the T/C [11] was 86 % of control.

In the case of `COc1ccc(SC(=O)Nc2cc([N+](=O)[O-])ccc2Cl)cc1`, the T/C (dose: 25.0 mg/kg/injection, schedule: Q01DX009 (ip), vehicle: saline with Tween-80) is reported as 89 % of control and the T/C (dose: 50.0 mg/kg/injection, schedule: Q01DX009 (ip), vehicle: saline with Tween-80) is reported as 89 % of control.

In the case of `COC(=O)C1CC[N-]CC1.COC(=O)C1CC[N-]CC1.[Cl][Pt+2][Cl]`, the T/C [12] is reported as 106 % of control, the T/C [13] is reported as 106 % of control and the T/C [14] is reported as 106 % of control.

`CCOC(COc1ccccc1)c1ccccc1` (centres undefined) was tested, and the T/C [1] was 106 % of control, the T/C [2] was 113 % of control and the T/C [3] was 106 % of control.

For `CC1=CC2C(C3C=CC2(C)C(=O)C3(C)Cc2ccccc2)C(C)(Cc2ccccc2)C1=O` (centres undefined), the T/C [15] was 94 % of control, the T/C (dose: 75.0 mg/kg/injection, schedule: Q01DX001 (ip), vehicle: Klucel (hydroxypropylcellulose) (HPC)) was 100 % of control and the T/C [1] was 96 % of control. For the same compound, the T/C (dose: 150.0 mg/kg/injection, schedule: Q01DX001 (ip), vehicle: Klucel (hydroxypropylcellulose) (HPC)) was 99 % of control, the T/C [2] was 93 % of control and the T/C (dose: 300.0 mg/kg/injection, schedule: Q01DX001 (ip), vehicle: Klucel (hydroxypropylcellulose) (HPC)) was 96 % of control.

In the case of `NC(=S)N/N=C/C(=O)O`, the T/C [16] is reported as 91 % of control, the T/C [17] is reported as 89 % of control and the T/C [18] is reported as 89 % of control.

For `O=C(CC(NC(=O)OCc1ccccc1)c1nn[nH]n1)OCc1ccccc1` (centres undefined), the T/C [5] was 101 % of control, the T/C [6] was 103 % of control and the T/C [7] was 90 % of control.

For `O=C(O)c1c(F)c(F)c(-c2c(F)c(F)c(F)c(F)c2F)c(F)c1F`, the T/C (dose: 100.0 mg/kg/injection, schedule: Q01DX001 (ip), vehicle: saline with Tween-80) was 86 % of control and the T/C (dose: 200.0 mg/kg/injection, schedule: Q01DX001 (ip), vehicle: saline with Tween-80) was 91 % of control.

`ClCCCSCCCCl` was tested, and the T/C (dose: 50.0 mg/kg/injection, schedule: Q01DX001 (ip), vehicle: saline) was 103 % of control, the T/C [16] was 112 % of control and the T/C [17] was 124 % of control. The T/C [18] was 95 % of control.

`O=[N+]([O-])c1cc(S(=O)(=O)O)ccc1Cl` was tested, and the T/C (dose: 100.0 mg/kg/injection, schedule: Q04DX003 (ip), vehicle: carboxymethylcellulose (CMC)) was 100 % of control, the T/C [12] was 98 % of control and the T/C (dose: 200.0 mg/kg/injection, schedule: Q04DX003 (ip), vehicle: carboxymethylcellulose (CMC)) was 101 % of control. For the same compound, the T/C [13] was 102 % of control, the T/C (dose: 400.0 mg/kg/injection, schedule: Q04DX003 (ip), vehicle: carboxymethylcellulose (CMC)) was 97 % of control and the T/C [14] was 101 % of control.

In the case of `Cc1ccc(Cl)cc1NS(=O)(=O)c1ccccc1[N+](=O)[O-]`, the T/C [1] is reported as 93 % of control, the T/C [2] is reported as 93 % of control and the T/C [3] is reported as 96 % of control.

`COc1ccc(C)cc1NC(=O)Nc1cc([N+](=O)[O-])ccc1F` was tested, and the T/C (dose: 100.0 mg/kg/injection, schedule: Q04DX002 (ip), vehicle: Klucel (hydroxypropylcellulose) (HPC)) was 87 % of control, the T/C (dose: 200.0 mg/kg/injection, schedule: Q04DX002 (ip), vehicle: Klucel (hydroxypropylcellulose) (HPC)) was 104 % of control and the T/C (dose: 400.0 mg/kg/injection, schedule: Q04DX002 (ip), vehicle: Klucel (hydroxypropylcellulose) (HPC)) was 108 % of control.

In the case of `O=C1CCCN1.O=C1CCCN1.[Br][Co][Br]`, the T/C (dose: 37.5 mg/kg/injection, schedule: Q01DX009 (ip), vehicle: saline) is reported as 113 % of control, the T/C (dose: 50.0 mg/kg/injection, schedule: Q04DX003 (ip), vehicle: saline) is reported as 107 % of control and the T/C (dose: 75.0 mg/kg/injection, schedule: Q01DX001 (ip), vehicle: saline) is reported as 103 % of control. The T/C (dose: 75.0 mg/kg/injection, schedule: Q01DX009 (ip), vehicle: saline) was 116 % of control, the T/C [19] was 109 % of control and the T/C (dose: 150.0 mg/kg/injection, schedule: Q01DX001 (ip), vehicle: saline) was 102 % of control. For the same compound, the T/C (dose: 300.0 mg/kg/injection, schedule: Q01DX001 (ip), vehicle: saline) was 97 % of control.

In the case of `CCOP(=O)(Nc1ccc2c(c1)Cc1cc(Br)ccc1-2)OCC`, the T/C [8] is reported as 105 % of control, the T/C [9] is reported as 92 % of control and the T/C [10] is reported as 105 % of control. For the same compound, the T/C [11] was 108 % of control.

For `Cc1ccc(/C=C/c2ccccc2)cc1`, the T/C (dose: 75.0 mg/kg/injection, schedule: Q01DX009 (ip), vehicle: Klucel (hydroxypropylcellulose) (HPC)) was 98 % of control, the T/C (dose: 150.0 mg/kg/injection, schedule: Q01DX009 (ip), vehicle: Klucel (hydroxypropylcellulose) (HPC)) was 104 % of control and the T/C (dose: 300.0 mg/kg/injection, schedule: Q01DX009 (ip), vehicle: Klucel (hydroxypropylcellulose) (HPC)) was 103 % of control.

`Cc1ncc2c[n+]([O-])ccn12` was tested, and the T/C [19] was 97 % of control and the T/C (dose: 200.0 mg/kg/injection, schedule: Q04DX003 (ip), vehicle: saline) was 98 % of control.

`CN(C)CCCN(C)CCCCN(C)CCCN(C)C` was tested, and the T/C [16] was 96 % of control.

For `Cc1cc(=O)cc(S)[nH]1`, the T/C [9] was 94 % of control, the T/C [10] was 100 % of control and the T/C [11] was 91 % of control.

With `N#CCc1c(Cl)ccc(Cl)c1Cl` the T/C (dose: 12.0 mg/kg/injection, schedule: Q01DX009 (ip), vehicle: Klucel (hydroxypropylcellulose) (HPC)) was 97 % of control, the T/C [4] was 100 % of control and the T/C (dose: 25.0 mg/kg/injection, schedule: Q04DX003 (ip), vehicle: Klucel (hydroxypropylcellulose) (HPC)) was 97 % of control. The T/C [15] was 94 % of control, the T/C (dose: 50.0 mg/kg/injection, schedule: Q04DX003 (ip), vehicle: Klucel (hydroxypropylcellulose) (HPC)) was 98 % of control and the T/C (dose: 100.0 mg/kg/injection, schedule: Q04DX003 (ip), vehicle: Klucel (hydroxypropylcellulose) (HPC)) was 101 % of control and 87 % of control.

`Cc1ccc(S/N=C/c2c(O)ccc3ccccc23)cc1` was tested, and the T/C (dose: 100.0 mg/kg/injection, schedule: Q04DX002 (ip), vehicle: other) was 91 % of control, the T/C (dose: 200.0 mg/kg/injection, schedule: Q04DX002 (ip), vehicle: other) was 102 % of control and the T/C (dose: 400.0 mg/kg/injection, schedule: Q04DX002 (ip), vehicle: other) was 94 % of control.

— PubChem BioAssay AID248 (DTP/NCI, 2004)
